Assay results from ChEMBL document CHEMBL1126612, “Synthesis and pharmacological evaluation of hexahydrofluorenamines as noncompetitive antagonists at the N-methyl-D-aspartate receptor” (J Med Chem, 1993).

Experiments:
Glutamate NMDA receptor [1] = test: Evaluated for their affinity at the PCP site for displacement of [3H]TCP in rat brain homogenates; type: tissue-based
Mus musculus = test: Compound was evaluated for in vivo activity assessed by prevention of NMDA-induced lethality in mice (N= 10 animals); type: functional
[2] = Partition coefficient determined using standard shake flask method at pH 7.4.; type: physicochemical; details: octanol/water
Rattus norvegicus [3] = organism: Rattus norvegicus; test: Compound was evaluated for the inhibition of glutamate-stimulated calcium influx (GSCI); (N=1); type: functional
[4] = target: Glutamate NMDA receptor (Rattus norvegicus) (UniProt P35439+Q00959+Q00960+Q00961+Q62645+Q8VHN2+Q9R1M7); test: (§1) Percent inhibition at the PCP site for displacement of [3H]TCP in rat brain homogenates at […]; type: tissue-based
Rattus norvegicus [5] = organism: Rattus norvegicus; test: Compound was evaluated for the inhibition of glutamate-stimulated calcium influx (GSCI); type: functional
Glutamate NMDA receptor [6] = test: as §1; type: tissue-based

SMILES	IC50 (Glutamate NMDA receptor [1]) [nM]	ED50 (Mus musculus) [mg/kg]	logD [2]	inhibition [4] [%]	further results
CNC12CCCCC1Cc1ccsc12 (centres undefined)	66	1.1	–	–	–
CNC12CCC(C)CC1Cc1ccccc12 (centres undefined)	95	–	–	–	–
NC12CCC(CO)CC1Cc1ccccc12 (centres undefined)	253	–	0.86	–	–
CC1CCCC2Cc3ccccc3C12N (centres undefined)	159	–	–	–	–
CNC12c3ccccc3CC1CCCC2C (centres undefined)	79	0.8	–	–	IC50 (Rattus norvegicus [3]): 390 nM
CC[C@]1(c2ccccc2)OC[C@H]([C@@H]2CCCCN2)O1 [ETOXADROL]	107	–	–	–	–
CCNC12CCCCC1Cc1c(C)cccc12 (centres undefined)	323	–	–	–	–
CNC12CC=CCC1c1ccccc1C2 (centres undefined)	–	–	0.04	0	–
NC12CCCCCC1Cc1ccccc12 (centres undefined)	304	–	–	–	–
CN[C@@]12CCCC[C@@H]1Cc1ccccc12.CN[C@]12CCCC[C@H]1Cc1ccccc12	30	0.58	0.54	–	IC50 (Rattus norvegicus [5]): 100 nM
c1ccc(C2(N3CCCCC3)CCCCC2)cc1 [PHENCYCLIDINE]	36.5	0.55	3.63	–	IC50 (Rattus norvegicus [5]): 200 nM
CCNC12CCCCC1Oc1ccccc12 (centres undefined)	141	1.5	–	–	IC50 (Rattus norvegicus [3]): 1800 nM
CNC12CCCCCC1Cc1ccccc12 (centres undefined)	113	–	0.66	–	IC50 (Rattus norvegicus [3]): 1200 nM
CNC[C@@H]1CC[C@@]2(NC)c3ccccc3C[C@H]2C1	–	–	-2.65	0	–
CNC12CCCCC1Sc1ccccc12 (centres undefined)	11.3	0.41	–	–	IC50 (Rattus norvegicus [3]): 210 nM
C=C1c2ccccc2C2(NC)CCCCC12 (centres undefined)	528	–	0.76	–	–
CNC12CCCCC1Cc1ccc(O)cc12 (centres undefined)	16.5	0.99	–	–	IC50 (Rattus norvegicus [3]): 140 nM
CNCC12CCCCC1c1ccccc1C2 (centres undefined)	–	–	–	0	–

SMILES	IC50 (Glutamate NMDA receptor [1]) [nM]	ED50 (Mus musculus) [mg/kg]	logD [2]	inhibition [4] [%]	further results
CN[C@@]12CCCC[C@@H]1Cc1ccccc12	107	10	0.43	–	IC50 (Rattus norvegicus [5]): 2550 nM
CNC12CCCCC1Cc1cc(OC)ccc12 (centres undefined)	–	–	0.21	11	–
NC12CCCC1Cc1ccccc12 (centres undefined)	–	–	-0.28	–	IC50 (Glutamate NMDA receptor [6]): 5 nM
NC12CCCCC1c1ccccc1C2 (centres undefined)	–	–	0.3	0	–
CCN[C@]12CCCC[C@H]1Cc1ccccc12	55.2	0.2	–	–	IC50 (Rattus norvegicus [3]): 61 nM
CNC12CCC(CO)CC1Cc1ccccc12 (centres undefined)	3940	–	0.17	–	–
CNC12CCCCC1Cc1ccc(OC)cc12 (centres undefined)	22	0.51	0.65	–	IC50 (Rattus norvegicus [3]): 160 nM
C=C1c2ccccc2C2(N)CCCCC12 (centres undefined)	–	–	–	4	–
C[C@]12N[C@H](Cc3ccccc31)c1ccccc12 [DIZOCILPINE]	–	0.22	2.1	–	IC50 (Rattus norvegicus [5]): 54 nM
CN[C@]12CCCC[C@H]1Cc1ccccc12	9.9	0.1	0.33	–	IC50 (Rattus norvegicus [5]): 120 nM
NCC12CCCCC1c1ccccc1C2 (centres undefined)	–	–	–	1	–
CNC12CCCCC1c1ccccc1C2 (centres undefined)	–	–	0.62	0	–
c1ccc(CNC23CCCCC2Cc2ccsc23)cc1 (centres undefined)	–	–	–	10	–
c1ccc(CNC23CCCC2Cc2ccccc23)cc1 (centres undefined)	–	–	–	4	–
N[C@]12CCCC[C@H]1Cc1ccccc12	13.4	0.61	–	–	IC50 (Rattus norvegicus [5]): 510 nM
CN[C@@]12CC[C@@H](CN)C[C@@H]1Cc1ccccc12	1.84	–	-1.42	–	IC50 (Rattus norvegicus [3]): 765000 nM
c1ccc(CNC23CCCCCC2Cc2ccccc23)cc1 (centres undefined)	–	–	–	6	–
CNC12CCCC1Cc1ccccc12 (centres undefined)	350	–	–	–	–
